In PubChem BioAssay AID330 (DTP/NCI, 2004) one finds T/C data, which are given here for 13 compounds.

Several values for one entry are separate records, joined by “and”; a condition that tells them apart may be missing. Equal entries are not always repeated. Inconclusive results and toxic doses are left out.

This assay relates to P388 leukemia ip, CD2F1 mice, survival T/C. In words: NCI In Vivo Anticancer Drug Screen. Data for tumor model P388 Leukemia (intraperitoneal) in CD2F1 (CDF1) mice. The conditions noted are these: endpoint: median survival time, higher = longer survival. A digest of the protocol: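 Mice carrying the transplanted tumor received test compound or vehicle. Survival was recorded in each group, and the value is the treated-group measurement divided by that of the vehicle-treated control group.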

Setting [1] is: dose: 50.0 mg/kg/injection, schedule: Q01DX009 (ip), vehicle: saline with Tween-80.
[2] abbreviates: dose: 100.0 mg/kg/injection, schedule: Q01DX009 (ip), vehicle: saline with Tween-80.
Setting [3] is: dose: 200.0 mg/kg/injection, schedule: Q01DX009 (ip), vehicle: saline with Tween-80.
Setting [4] is: dose: 60.0 mg/kg/injection, schedule: Q01DX005 (ip), vehicle: Klucel (hydroxypropylcellulose) (HPC).
Setting [5] is: dose: 240.0 mg/kg/injection, schedule: Q01DX005 (ip), vehicle: Klucel (hydroxypropylcellulose) (HPC).
Setting [6] is: dose: 120.0 mg/kg/injection, schedule: Q01DX005 (ip), vehicle: Klucel (hydroxypropylcellulose) (HPC).
Where [7] appears, read: dose: 50.0 mg/kg/injection, schedule: Q01DX005 (ip), vehicle: saline with Tween-80.
Where [8] appears, read: dose: 100.0 mg/kg/injection, schedule: Q01DX005 (ip), vehicle: saline with Tween-80.

On to `COC(=O)[C@@]12OC[C@]34[C@H]([C@@H](O)[C@@H]1O)[C@@]1(C)CC(=O)C(O)=C(C)[C@@H]1C[C@H]3OC(=O)[C@H](OC(=O)/C=C(\C)C(C)C)[C@@H]24`, for which the T/C is 108 % of control (dose: 0.03 mg/kg/injection, schedule: Q01DX009 (ip), vehicle: saline + alcohol); 107 % of control (dose: 0.06 mg/kg/injection, schedule: Q01DX009 (sc), vehicle: saline + alcohol); 152 % of control (dose: 0.06 mg/kg/injection, schedule: Q03HX024 (ip), vehicle: saline + alcohol); 160 % of control (dose: 0.13 mg/kg/injection, schedule: Q01DX009 (ip), vehicle: saline with Tween-80); 108 % of control (dose: 0.13 mg/kg/injection, schedule: Q01DX009 (sc), vehicle: saline + alcohol); 151 % of control (dose: 0.13 mg/kg/injection, schedule: Q03HX024 (ip), vehicle: saline + alcohol). Also, the T/C reads like this: (dose: 0.25 mg/kg/injection, schedule: Q01DX009 (ip), vehicle: distilled water + Tween-80) 155 % of control and 177 % of control; (dose: 0.25 mg/kg/injection, schedule: Q01DX009 (ip), vehicle: saline with Tween-80) 156 % of control; (dose: 0.25 mg/kg/injection, schedule: Q01DX009 (sc), vehicle: saline + alcohol) 106 % of control; (dose: 0.25 mg/kg/injection, schedule: Q03HX024 (ip), vehicle: saline + alcohol) 164 % of control; (dose: 0.38 mg/kg/injection, schedule: Q01DX009 (ip), vehicle: saline + Tween-80 + alcohol) 155 % of control; (dose: 0.5 mg/kg/injection, schedule: Q01DX009 (ip), vehicle: distilled water + Tween-80) 155 % of control and 185 % of control. Moreover, the T/C was 169 % of control (dose: 0.5 mg/kg/injection, schedule: Q01DX009 (ip), vehicle: saline with Tween-80); 102 % of control (dose: 0.5 mg/kg/injection, schedule: Q01DX009 (oral), vehicle: saline + alcohol); 110 % of control (dose: 0.5 mg/kg/injection, schedule: Q01DX009 (sc), vehicle: saline + alcohol); 101 % of control (dose: 0.5 mg/kg/injection, schedule: Q08DX002 (ip), vehicle: saline + alcohol); 111 % of control (dose: 1.0 mg/kg/injection, schedule: Q01DX001 (ip), vehicle: saline + alcohol); 109 % of control (dose: 1.0 mg/kg/injection, schedule: Q01DX001 (sc), vehicle: saline + alcohol). Further, the T/C (dose: 1.0 mg/kg/injection, schedule: Q01DX005 (ip), vehicle: water) was 155 % of control; the T/C (dose: 1.0 mg/kg/injection, schedule: Q01DX009 (ip), vehicle: distilled water + Tween-80) was 158 % of control and 166 % of control; the T/C (dose: 1.0 mg/kg/injection, schedule: Q01DX009 (ip), vehicle: saline with Tween-80) is 185 % of control; the T/C (dose: 1.0 mg/kg/injection, schedule: Q01DX009 (oral), vehicle: saline + alcohol) was 104 % of control; the T/C (dose: 1.0 mg/kg/injection, schedule: Q08DX002 (ip), vehicle: saline + alcohol) is 100 % of control; the T/C (dose: 2.0 mg/kg/injection, schedule: Q01DX001 (ip), vehicle: saline + alcohol) was 116 % of control. Further, the T/C by setting is: (dose: 2.0 mg/kg/injection, schedule: Q01DX001 (sc), vehicle: saline + alcohol) 115 % of control; (dose: 2.0 mg/kg/injection, schedule: Q01DX009 (ip), vehicle: saline with Tween-80) 209 % of control; (dose: 2.0 mg/kg/injection, schedule: Q01DX009 (oral), vehicle: saline + alcohol) 104 % of control; (dose: 2.0 mg/kg/injection, schedule: Q08DX002 (ip), vehicle: saline + alcohol) 102 % of control; (dose: 4.0 mg/kg/injection, schedule: Q01DX001 (ip), vehicle: saline + alcohol) 120 % of control; (dose: 4.0 mg/kg/injection, schedule: Q01DX001 (oral), vehicle: saline + alcohol) 106 % of control. Besides, the T/C is, setting by setting: (dose: 125.0 micrograms/kg/injection, schedule: Q01DX009 (ip), vehicle: saline + alcohol) 124 % of control; (dose: 250.0 micrograms/kg/injection, schedule: Q01DX009 (ip), vehicle: saline + alcohol) 155 % of control; (dose: 500.0 micrograms/kg/injection, schedule: Q01DX009 (ip), vehicle: saline + alcohol) 171 % of control; (dose: 1000.0 micrograms/kg/injection, schedule: Q01DX009 (ip), vehicle: saline + alcohol) 160 % of control and 197 % of control; (dose: 2000.0 micrograms/kg/injection, schedule: Q01DX009 (ip), vehicle: saline + alcohol) 152 % of control.

For the compound `O=C(O)c1cc2cccc([N+](=O)[O-])c2[se]1`, the T/C is 106 % of control (dose: 50.0 mg/kg/injection, schedule: Q01DX009 (ip), vehicle: suspension in saline); 96 % of control (dose: 100.0 mg/kg/injection, schedule: Q01DX009 (ip), vehicle: suspension in saline); 113 % of control (dose: 200.0 mg/kg/injection, schedule: Q01DX009 (ip), vehicle: suspension in saline).

With `CCOC(=O)CNC1CC(O[C@H]2C[C@](O)(C(C)=O)Cc3c(O)c4c(c(O)c32)C(=O)c2c(OC)cccc2C4=O)OC(C)C1O` (stereo partly drawn), the T/C is, setting by setting: (dose: 25.0 mg/kg/injection, schedule: Q04DX003 (ip), vehicle: Klucel (hydroxypropylcellulose) (HPC)) 103 % of control; (dose: 50.0 mg/kg/injection, schedule: Q04DX003 (ip), vehicle: Klucel (hydroxypropylcellulose) (HPC)) 110 % of control; (dose: 100.0 mg/kg/injection, schedule: Q04DX003 (ip), vehicle: Klucel (hydroxypropylcellulose) (HPC)) 109 % of control; (dose: 200.0 mg/kg/injection, schedule: Q04DX003 (ip), vehicle: Klucel (hydroxypropylcellulose) (HPC)) 100 % of control.

In the case of `COC(=O)/C=C(\C(=O)OC)c1ccccc1C(C(=O)OC)c1ccccc1CC(=O)OC` (stereo not drawn), the T/C runs as follows: under setting [1], 108 % of control; under setting [2], 106 % of control; under setting [3], 108 % of control.

Turning to `CC(C)(C)N1COC2CCCCC21` (stereo not drawn), the T/C was 106 % of control (dose: 15.0 mg/kg/injection, schedule: Q01DX005 (ip), vehicle: Klucel (hydroxypropylcellulose) (HPC)); 102 % of control (dose: 30.0 mg/kg/injection, schedule: Q01DX005 (ip), vehicle: Klucel (hydroxypropylcellulose) (HPC)); 106 % of control and 117 % of control under setting [4]; 106 % of control under setting [5].

Regarding `CN1C(=O)c2ccccc2C2(C1=O)C(C#N)=C(N)Oc1c2c2ccccc2c(=O)n1C` (stereo not drawn), the T/C by setting is: under setting [4], 99 % of control; under setting [6], 95 % of control; under setting [5], 88 % of control.

For the compound `FC(F)(F)COP(c1ccccc1)c1ccccc1`, the T/C by setting is: under setting [7], 113 % of control; under setting [8], 111 % of control; (dose: 200.0 mg/kg/injection, schedule: Q01DX005 (ip), vehicle: saline with Tween-80) 114 % of control.

Turning to `S=C(N/N=C/c1ccncc1)Nc1ccccc1`, the T/C by setting is: under setting [4], 99 % of control; under setting [6], 100 % of control; under setting [5], 91 % of control.

With `COC(=O)C1CC(NO)CN1S(=O)(=O)c1ccc(C)cc1` (stereo not drawn), the T/C runs as follows: (dose: 100.0 mg/kg/injection, schedule: Q04DX002 (ip), vehicle: saline with Tween-80) 99 % of control; (dose: 200.0 mg/kg/injection, schedule: Q04DX002 (ip), vehicle: saline with Tween-80) 95 % of control; (dose: 400.0 mg/kg/injection, schedule: Q04DX002 (ip), vehicle: saline with Tween-80) 93 % of control.

As for `NCCCN1CCCC1`, the T/C was 95 % of control (dose: 50.0 mg/kg/injection, schedule: Q01DX005 (ip), vehicle: saline) and 105 % of control (dose: 100.0 mg/kg/injection, schedule: Q01DX005 (ip), vehicle: saline).

For `COc1cc2ccc(/C=C/C(=O)c3ccc4c(c3)OCO4)cc2cc1OC`, the T/C is 103 % of control (dose: 25.0 mg/kg/injection, schedule: Q01DX009 (ip), vehicle: water); 98 % of control (dose: 50.0 mg/kg/injection, schedule: Q01DX009 (ip), vehicle: water); 97 % of control (dose: 100.0 mg/kg/injection, schedule: Q01DX009 (ip), vehicle: water); 98 % of control (dose: 200.0 mg/kg/injection, schedule: Q01DX009 (ip), vehicle: water); 91 % of control (dose: 400.0 mg/kg/injection, schedule: Q01DX009 (ip), vehicle: water).

For the compound `O=C(c1ccccc1)N1C=CN(C(=O)c2ccccc2)C1c1nccn1C(=O)c1ccccc1`, the T/C under setting [1] is 105 % of control, the T/C under setting [2] was 96 % of control and the T/C under setting [3] is 91 % of control.

Take `Cc1noc(NC(=O)Nc2ccccc2F)c1C#N`: the T/C was 91 % of control under setting [7] and 100 % of control under setting [8].
